Measured values: patent US20110117164A1, “Use of Additive Sites to Control Nitric Oxide Release from Nitric Oxide Donors Contained within Polymers” (priority 2004, published 2011)

Assays:
Type in all cases: physicochemical
[1] = Organic phase pH of polymer films monitored with chromoionophore II (UV-Vis); conditions: PVC films with 5 wt. % donor, PBS buffer; protonated 650 nm, deprotonated 514 nm
From the text: To determine, experimentally, if the pH within the film was changing with time, a lipophilic pH chromoionophore was incorporated into PVC films containing 5 wt. % of 2d, both in the presence and absence of KTpClPB. The intensity of the UV-Vis absorbances corresponding to the protonated (λmax=650 nm) and deprontonated (λmax=514 nm) peaks of the chromoionophore were monitored with time spectrophotometrically. […] This further supports the notion that as NO is being released from within the polymer phase, the unreacted diazeniumdiolate groups may require a buffering system to prevent the film from becoming too basic, which in turn may slow further diazeniumdiolate decomposition.
General Procedure for Deprotection to Form Diamine Copolymer (c). 35 mg of the copolymer (b) was dissolved in 2 mL of dichloromethane and then 200 μL of TFA (trifluoroacetic acid) was added dropwise. The solution was stirred at room temperature for about 3 hours. […] The data was recorded as a concentration of NO in PPB or PPM. The total amount of NO released (in moles) was determined by multiplying a constant (specific to each instrument, units of mol ppm^−1 s^−1) by the time interval that data was collected and the concentration. pH Experiments. […]

[2] = Thermal gravimetric analysis under nitrogen (thermal stability of diazeniumdiolates); conditions: nitrogen atmosphere
[3] = Storage stability of polymer films containing diazeniumdiolate (NO release after storage); conditions: 4 weeks
Protocol: To determine if polymer films containing such diazeniumdiolates would also remain stable, NO release measurements were conducted for films containing 29 wt. % PVC, 60 wt. % plasticizer (DOS), 4.4 wt. % compound 2d and 6.6 wt. % KTpClPB under two storage conditions: a) room temperature under nitrogen and b) ambient conditions. Initial NO release measurements were performed for freshly prepared films. Additional NO release measurements were conducted for both storage conditions after 1, 2 and 4 weeks. […] The loss of NO may be due in part to the slow decomposition of the diazeniumdiolate within the polymer matrix owing to permeation of water vapor into the polymer film. Although this loss represents a significant percentage of the total NO releasing capability of the film, such films still yield NO surface fluxes higher than that of stimulated endothelial cells (i.e., 4·10^−10 mol·cm^−2·min^−1). However, films stored under a dry nitrogen environment at room temperature maintained 99% of their NO release after a 4-week period.

TNO loss (stable up to) [2]: 104 °C
theoretical total NO release achieved after storage ([3]; film 29 wt. % PVC, 60 wt. % DOS, 4.4 wt. % donor, 6.6 wt. % KTpClPB, ambient conditions): 62%
NO release maintained after storage ([3]; same film, dry nitrogen environment at room temperature): 99%
SMILES: CCCCNCCCCCCN(CCCC)/[N+]([O-])=N/O [Compound 2d, (Z)-1-{N-Butyl-N-[6-(N-butylammoniohexyl)amino]}-diazen-1-ium-1,2-diolate]
change of chromoionophore peaks with exposure time, films containing KTpClPB [1]: the intensity of the protonated peak remains constant
change of chromoionophore peaks with exposure time, films without KTpClPB [1]: an increase in the absorbance of the deprotonated peak and a decrease in the protonated peak
NO surface flux of films after ambient storage (vs stimulated endothelial cells) ([3]; films stored under ambient conditions): > 4·10^−10 mol·cm^−2·min^−1
